In US4431640A, “Process for inducing anabolic and androgenic activity in animals” (Roussel Uclaf, priority 1980, dated 1984):

What was measured:
androgen receptor = biological target: T1, androgen receptor (Rattus norvegicus, UniProt P15207); experiment: androgenic activity by hormonal receptor method (displacement of tritied R from prostate cytosol); type: binding, rats; conditions: castrated male rat prostate cytosol, incubated at 0° C. for 2 hours, testosterone = 100
T1 construct: The prostate was removed from male rats castrated 24 hours earlier and it was homogenized; from tissue; host or cells: prostate cytosol (105,000 g supernatant) of male rats castrated 24 hours earlier
T1 sequence (P15207 1-902): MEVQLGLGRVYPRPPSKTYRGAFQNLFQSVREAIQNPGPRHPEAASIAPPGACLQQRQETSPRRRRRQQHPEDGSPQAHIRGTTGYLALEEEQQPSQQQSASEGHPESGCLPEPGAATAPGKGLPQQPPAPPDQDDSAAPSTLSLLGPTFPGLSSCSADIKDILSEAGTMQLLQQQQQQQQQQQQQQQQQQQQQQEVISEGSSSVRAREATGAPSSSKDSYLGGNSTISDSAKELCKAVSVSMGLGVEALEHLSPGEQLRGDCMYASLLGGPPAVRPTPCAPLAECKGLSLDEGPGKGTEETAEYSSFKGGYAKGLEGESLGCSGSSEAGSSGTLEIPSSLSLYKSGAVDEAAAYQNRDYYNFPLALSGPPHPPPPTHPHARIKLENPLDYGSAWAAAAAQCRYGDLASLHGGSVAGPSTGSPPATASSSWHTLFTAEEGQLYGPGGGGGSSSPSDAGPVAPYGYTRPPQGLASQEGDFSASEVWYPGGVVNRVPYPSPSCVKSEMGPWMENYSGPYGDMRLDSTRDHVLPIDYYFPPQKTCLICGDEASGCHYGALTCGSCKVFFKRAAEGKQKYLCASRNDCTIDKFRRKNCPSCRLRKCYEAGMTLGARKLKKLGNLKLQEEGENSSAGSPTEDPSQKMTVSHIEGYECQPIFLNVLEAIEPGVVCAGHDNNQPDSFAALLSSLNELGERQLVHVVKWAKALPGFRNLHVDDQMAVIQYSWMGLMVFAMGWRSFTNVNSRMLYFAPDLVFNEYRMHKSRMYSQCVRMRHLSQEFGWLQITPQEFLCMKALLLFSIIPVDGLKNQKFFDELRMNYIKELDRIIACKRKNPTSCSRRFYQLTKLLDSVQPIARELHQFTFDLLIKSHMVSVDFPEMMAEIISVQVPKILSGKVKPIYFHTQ
Experimental: The androgenic activity of the compound of Example 1 and 11β-propyl-17α-methyl-Δ^4,9 -estradiene-17β-ol-3-one (compound A) were compared by the hormonal receptor method of Raynaud et al [J. Ster. Biochem., Vol. 6 (1975), p. 615-622]. The prostate was removed from male rats castrated 24 hours earlier and it was homogenized in a buffered 10 mmole tromethamine solution containing 0.25 M of saccharose and a pH of 7.4 with hydrochloric acid. The homogenate was centrifuged at 105,000 g for one hour and the liquid surnageant or "cytosol" was adjusted to obtain a 1/5 (weight/volume) dilution.
The radioactivity of tritied product was determined after about 2 hours in the receptor by the technique of carbon-dextran (1.25%-0.625%) absorption. […] B/T max. is the percentage of tied tritied R product when the compound is not added. B/T min. is the percentage of tied tritied product R when the maximum amount of cold product R is added. […] The relative affinity of the test product or ARL was determined using the formula [formula]

calves of the FFPN race = experiment: weight gain test in calves after percutaneous treatment; type: in vivo
Experimental: This test was effected with groups of calves of the FFPN race and all groups received the same amount of feed. The control group were untreated and the other group received percutaneously on day J and J+7 200 mg of the compound of Example 1. The weights of the animals were determined 7 days before the treatment (J-7), on the day of treatment (J), on the day of the second treatment (J+7) and one week after the second treatment (J+14) and the results are reported in the following Table.

SMILES	relative affinity (ARL) (androgen receptor)	average weight gain (calves of the FFPN race; 7 days after the test, J 14 to J 21, 200 mg percutaneously on J and J+7) [kg]	Average weight of calves (calves of the FFPN race; day J + 7, day of second treatment, 200 mg percutaneously on J and J+7) [kg]	Average weight of calves (calves of the FFPN race; day J + 14, one week after second treatment, 200 mg percutaneously on J and J+7) [kg]	Average weight of calves (calves of the FFPN race; day J - 7, 7 days before the treatment (baseline)) [kg]	Average weight of calves (calves of the FFPN race; day J, day of first treatment (200 mg percutaneously)) [kg]	average weight gain (calves of the FFPN race; table total (J to J + 14), 200 mg percutaneously on J and J+7) [kg]
C[C@H]1C[C@@]2(C)[C@@H](CC[C@]2(C)O)[C@@H]2CCC3=CC(=O)CCC3=C21 [Example 1, 11β,17α-dimethyl-Δ^4,9-estradiene-17β-ol-3-one]	90	8.63	60.47	70.67	45.50	52.30	18.37
CCC[C@H]1C[C@@]2(C)[C@@H](CC[C@]2(C)O)[C@@H]2CCC3=CC(=O)CCC3=C12 [product A, 11β-propyl-17α-methyl-Δ^4,9-estradiene-17β-ol-3-one, reference compound]	22	–	–	–	–	–	–
